SMILES strings stand for the structures.

Data set [1] deals with c-MYC Pu22 G4 DNA. As to the kind of experiment: Microscale thermophoresis (MST), c-MYC Pu22 G4 DNA. The class given is binding, human. The settings on record: Cy5-labeled c-MYC Pu22 G4 DNA 25 nM; pH 7.4, 100 mM KCl; read-out: apparent Kd (MST). How it is done:
To evaluate the apparent binding affinities (Kd) for the compound series, we next used microscale thermophoresis (MST) with fluorescently labeled c-MYC Pu22 G4 DNA (Table S1). Overall, the measured MST binding results for compounds 2–11 corresponded well with the results from the FRET assay (Figures 2B and S3).
5′-Cy5 labeled G4 DNAs for this study were purchased from Eurofins Genomics. Stock solutions were prepared in water at 100 μM concentration. The sequences used are listed in Supporting Information Table S1. The G4 DNA sequences were folded in KCl buffer (10 mM phosphate, 100 mM KCl, pH 7.4) by heating at 95 °C for 5 min and then cooling to room temperature. All the experiments were performed in 10 mM phosphate pH 7.4, 100 mM KCl, and 0.05% Tween20. The labeled DNA concentration is held constant at 25 nM, and ligand concentration is varied depending on ligands Kd (16 1:3 dilutions). The samples were loaded into standard MST graded glass capillaries and initial fluorescence intensity of the capillary was measured using Monolith NT.115 (Nano Temper, Germany) with 20% LED power. The change in fluorescence with ligand’s concentrations were plotted in Excel and fitted through nonlinear equation to obtain the binding constants. […]
Microscale Thermophoresis (MST)
5'- Cy5 labelled G4 DNAs for this study were purchased from Eurofins Genomics. Stock solutions were prepared in water at […] concentration. The sequences used are listed in supplementary Table S1. The G4 DNA sequences were folded in KCl buffer (10 mM phosphate, 100 mM KCl, pH 7.4) by heating at 95 °C for 5 min and then cooling to room temperature. All the experiments were performed in 10 mM phosphate pH 7.4, 100 mM KCl, 0.05% Tween20. The labelled DNA concentration is held constant at 25 nM and ligand concentration is varied depending on ligands Kd (sixteen 1:3 dilutions). The samples were loaded into standard MST graded glass capillaries and initial fluorescence intensity of the capillary were measured using Monolith NT.115 (Nano Temper, Germany) with 20% LED power. The change in fluorescence with ligand's concentrations were plotted in Excel and fitted through non-linear equation to obtain the binding constants.
(1 picture or pasted object on this page, not shown here)
A general note: In MST a laser heats a spot of the sample, and binding alters the fluorescence response.

The nature of the next data set: logD at pH 7.4. It is filed as physicochemical. The procedure: Physicochemical properties
The Physicochemical profiling (LogD, Solubility, Caco-2 cell permeability) was performed as previously
described.8 Cell viability was performed as described below.
Table S2. Pharmacokinetic Properties
Compound Structure logD, Solubility, Rat hepsa Human mics b

The test system of the next data set is dsDNA (5'Cy5-ds26). Briefly: MST with fluorescently labeled dsDNA. It is filed as binding. How it is done: We next challenged the compounds’ G4 selectivity with a FRET melting competition assay using 5 (2 μM) and 27 (5 μM) with c-MYC Pu22 G4 DNA and increasing amounts of dsDNA (Figure 6D and Table S1). […] In addition, we investigated if we could detect any binding of the compounds to dsDNA using MST with a fluorescently labeled dsDNA (Table S1).
5′-Cy5 labeled G4 DNAs for this study were purchased from Eurofins Genomics. Stock solutions were prepared in water at 100 μM concentration. The sequences used are listed in Supporting Information Table S1. The G4 DNA sequences were folded in KCl buffer (10 mM phosphate, 100 mM KCl, pH 7.4) by heating at 95 °C for 5 min and then cooling to room temperature. All the experiments were performed in 10 mM phosphate pH 7.4, 100 mM KCl, and 0.05% Tween20. The labeled DNA concentration is held constant at 25 nM, and ligand concentration is varied depending on ligands Kd (16 1:3 dilutions). The samples were loaded into standard MST graded glass capillaries and initial fluorescence intensity of the capillary was measured using Monolith NT.115 (Nano Temper, Germany) with 20% LED power. The change in fluorescence with ligand’s concentrations were plotted in Excel and fitted through nonlinear equation to obtain the binding constants.

The subject of data set [2] is c-MYC Pu22 G4 DNA. Briefly: 1H NMR titration with c-MYC Pu22 G4 DNA. The class given is binding, human. The conditions noted are these: DNA 90 μM; 298 K. An excerpt: To study the interactions of compounds 5 and 27 with G4 DNA in more detail, we performed a nuclear magnetic resonance (NMR) titration assay for both compounds with c-MYC Pu22 G4 DNA. In this assay, we monitored chemical shift alterations and the broadening of the well-defined imino protons from the G4 DNA located at 10–12 ppm in the NMR spectrum upon the addition of different compound concentrations. […] Although it is challenging to conclude the details of the binding interactions, the observed impact on the protons in the 3′ quartet for both compounds, especially compound 27, strongly implies the presence of an end-stacking type of interaction.
The G4 DNA stock solutions were prepared by folding 100 μM c-MYC Pu22 in 10 mM potassium phosphate buffer (pH = 7.4) and 35 mM KCl by heating at 95 °C for 10 min and cooling to ambient temperature overnight. 10% D2O was added to the DNA stock solutions, yielding a final DNA concentration of 90 μM. NMR samples were prepared by sequential addition of 5 or 27 from 2 or 10 mM DMSO-d6 stock solutions to 200 μL of the DNA solution which was then transferred to 3 mm NMR tubes. […] All spectra were recorded at 298 K on a Bruker 850 MHz Avance III HD spectrometer equipped with a 5 mm TCI cryoprobe. Excitation sculpting was used in the 1D 1H experiments, and 256 scans were recorded. Processing of spectra was performed in MestreNova 10.0.2.

As usually defined, the logD is lipophilicity at a set pH, counting ionised and neutral species. Read a high logD as higher lipophilicity. For `Cc1cc(NCCCN(C)C)nc(Nc2ncc3ccccc3n2)n1` [Compound 2, N4-(3-(Dimethylamino)propyl)-6-methyl-N2-(quinazolin-2-yl)pyrimidine-2,4-diamine], at c-MYC Pu22 G4 DNA [1], the Kd amounted to 1400 nM. The logD in “logD at pH 7.4” was -0.1.

In the case of `Cc1cc(C)c2nc(Nc3nc(C)cc(NCCCN(C)C)n3)nc(C)c2c1` [Compound 5, N4-(3-(Dimethylamino)propyl)-6-methyl-N2-(4,6,8-trimethylquinazolin-2-yl)pyrimidine-2,4-diamine], the Kd at c-MYC Pu22 G4 DNA [1] came to 50 nM. The same molecule registered a logD in “logD at pH 7.4” of 0.6. For the same molecule, the “binding to dsDNA (MST)” value in the data set on dsDNA (5'Cy5-ds26) is on record as “no binding could be observed”. Further, in the data set with c-MYC Pu22 G4 DNA [2], the “binding by NMR titration (imino protons)” value is on record as “bind”.

On to `Cc1cc(C)c2nc(Nc3nc(C)cc(C)n3)nc(C)c2c1` [Compound 27, N-(4,6-Dimethylpyrimidin-2-yl)-4,6,8-trimethylquinazolin-2-amine], for which the Kd on c-MYC Pu22 G4 DNA [1] came to 800 nM. The molecule further showed a logD in “logD at pH 7.4” of 2.9. For the same molecule, the “binding to dsDNA (MST)” value in the data set on dsDNA (5'Cy5-ds26) is recorded as “no binding could be observed”. The “binding by NMR titration (imino protons)” value in the data set with c-MYC Pu22 G4 DNA [2] was “bind”.

For the origin of these results see article PMC10860144, “Exploring the Dispersion and Electrostatic Components in Arene–Arene Interactions between Ligands and G4 DNA to Develop G4-Ligands” (Journal of Medicinal Chemistry, 2024).
